Experimental data published in patent US6905841B2, “Enzymatic substrates for detecting Pseudomonas aeruginas” (Biomerieux S.A., priority 1999, dated 2005).
Like-named read-outs stand apart in the source and are kept apart here.

Columns and labels:
β-alanine aminopeptidase [1] = type: cell-based; conditions: Ochrobactrum anthropi; 1 strain tested; read after 22 to 24 hours
β-alanine aminopeptidase [2] = conditions: Citrobacter amalonaticus; 2 strains tested; read after 22 to 24 hours
β-alanine aminopeptidase [3] = conditions: Escherichia coli; 2 strains tested; read after 22 to 24 hours
β-alanine aminopeptidase [4] = conditions: Serratia liquefaciens; 1 strain tested; read after 22 to 24 hours
β-alanine aminopeptidase [5] = conditions: Klebsiella oxytoca; 2 strains tested; read after 22 to 24 hours
β-alanine aminopeptidase [6] = conditions: Acinetobacter baumannii; 2 strains tested; read after 22 to 24 hours
β-alanine aminopeptidase [7] = conditions: Brevundimonas diminuta; 2 strains tested; read after 22 to 24 hours
β-alanine aminopeptidase [8] = conditions: Burkholderia vesicularis; 1 strain tested; read after 22 to 24 hours
β-alanine aminopeptidase [9] = conditions: Pseudomonas mendocina; 1 strain tested; read after 22 to 24 hours
β-alanine aminopeptidase [10] = conditions: Pseudomonas putida; 1 strain tested; read after 22 to 24 hours
β-alanine aminopeptidase [11] = conditions: Stenotrophomonas maltophilia; 2 strains tested; read after 22 to 24 hours
β-alanine aminopeptidase [12] = conditions: Streptococcus agalactiae; 1 strain tested; read after 22 to 24 hours
β-alanine aminopeptidase [13] = conditions: Vibrio vulnificus; 1 strain tested; read after 22 to 24 hours
β-alanine aminopeptidase [14] = test: APIZYM-type test strips with β-alanyl-β-naphthylamide; type: cell-based; conditions: Edwarsiella tarda; 2 strains
β-alanine aminopeptidase [15] = test: as above; type: cell-based; conditions: Salmonella arizonae; five strains
β-alanine aminopeptidase [16] = test: as above; type: cell-based; conditions: Citrobacter diversus; five strains
β-alanine aminopeptidase [17] = test: as above; type: cell-based; conditions: Klebsiella pneumoniae, spp. pneumoniae; five strains
β-alanine aminopeptidase [18] = test: as above; type: cell-based; conditions: Enterobacter sakazakii; five strains
β-alanine aminopeptidase [19] = test: as above; type: cell-based; conditions: Enterobacter gergoviae; five strains
β-alanine aminopeptidase [20] = test: as above; type: cell-based; conditions: Serratia marcescens; five strains
β-alanine aminopeptidase [21] = test: as above; type: cell-based; conditions: Proteus vulgaris; five strains
β-alanine aminopeptidase [22] = test: as above; type: cell-based; conditions: Proteus morganii; five strains
β-alanine aminopeptidase [23] = test: as above; type: cell-based; conditions: Providencia stuartii; five strains
β-alanine aminopeptidase [24] = test: as above; type: cell-based; conditions: Pseudomonas putida; five strains
β-alanine aminopeptidase [25] = test: as above; type: cell-based; conditions: Comamonas testosteroni; five strains
β-alanine aminopeptidase [26] = test: as above; type: cell-based; conditions: Oligella ureolytica; 2 strains
β-alanine aminopeptidase [27] = test: as above; type: cell-based; conditions: Aeromonas hydrophila; five strains
β-alanine aminopeptidase [28] = test: as above; type: cell-based; conditions: Chryseobacterium meningosepticum; five strains
β-alanine aminopeptidase [29] = test: as above; type: cell-based; conditions: Myroïdes spp.; five strains
β-alanine aminopeptidase [30] = test: as above; type: cell-based; conditions: Pasteurella multocida; five strains
β-alanine aminopeptidase [31] = test: as above; type: cell-based; conditions: Pasteurella pneumotropica; 4 strains
β-alanine aminopeptidase [32] = test: as above; type: cell-based; conditions: Moraxella lac. sp. liquefaciens; 7 strains
β-alanine aminopeptidase [33] = test: as above; type: cell-based; conditions: Actinobacillus spp.; five strains
β-alanine aminopeptidase [34] = test: as above; type: cell-based; conditions: Burkholderia cepacia; five strains
β-alanine aminopeptidase [35] = test: as above; type: cell-based; conditions: Pseudomonas mendocina; five strains
β-alanine aminopeptidase [36] = test: as above; type: cell-based; conditions: Ochrobactrum anthropi; five strains

NCCC(=O)c1c(N)cc(Cl)c(O)c1Cl
Number of negative results (β-alanine aminopeptidase [1]): 0 | Number positive results (β-alanine aminopeptidase [1]): 1 | Number of negative results (β-alanine aminopeptidase [2]): 2 | Number positive results (β-alanine aminopeptidase [2]): 0 | Number of negative results (β-alanine aminopeptidase [3]): 2 | Number positive results (β-alanine aminopeptidase [3]): 0 | Number of negative results (β-alanine aminopeptidase [4]): 0 | Number positive results (β-alanine aminopeptidase [4]): 1 | Number of negative results (β-alanine aminopeptidase [5]): 2 | Number positive results (β-alanine aminopeptidase [5]): 0 | Number of negative results (β-alanine aminopeptidase [6]): 2 | Number positive results (β-alanine aminopeptidase [6]): 0 | Number of negative results (β-alanine aminopeptidase [7]): 2 | Number positive results (β-alanine aminopeptidase [7]): 0 | Number of negative results (β-alanine aminopeptidase [8]): 1 | Number positive results (β-alanine aminopeptidase [8]): 0 | Number of negative results (β-alanine aminopeptidase [9]): 0 | Number positive results (β-alanine aminopeptidase [9]): 1 | Number of negative results (β-alanine aminopeptidase [10]): 1 | Number positive results (β-alanine aminopeptidase [10]): 0 | Number of negative results (β-alanine aminopeptidase [11]): 2 | Number positive results (β-alanine aminopeptidase [11]): 0 | Number of negative results (β-alanine aminopeptidase [12]): 1 | Number positive results (β-alanine aminopeptidase [12]): 0 | Number of negative results (β-alanine aminopeptidase [13]): 1 | Number positive results (β-alanine aminopeptidase [13]): 0

β-alanyl-β-naphthylamide
β-alanine aminopeptidase activity, result (β-alanine aminopeptidase [14]): negative | β-alanine aminopeptidase activity, result (β-alanine aminopeptidase [15]): negative | β-alanine aminopeptidase activity, result (β-alanine aminopeptidase [16]): negative | β-alanine aminopeptidase activity, result (β-alanine aminopeptidase [17]): negative | β-alanine aminopeptidase activity, result (β-alanine aminopeptidase [18]): negative | β-alanine aminopeptidase activity, result (β-alanine aminopeptidase [19]): negative | β-alanine aminopeptidase activity, result (β-alanine aminopeptidase [20]): negative | β-alanine aminopeptidase activity, result (β-alanine aminopeptidase [21]): negative | β-alanine aminopeptidase activity, result (β-alanine aminopeptidase [22]): negative | β-alanine aminopeptidase activity, result (β-alanine aminopeptidase [23]): negative | β-alanine aminopeptidase activity, result (β-alanine aminopeptidase [24]): negative | β-alanine aminopeptidase activity, result (β-alanine aminopeptidase [25]): negative | β-alanine aminopeptidase activity, result (β-alanine aminopeptidase [26]): negative | β-alanine aminopeptidase activity, result (β-alanine aminopeptidase [27]): negative | β-alanine aminopeptidase activity, result (β-alanine aminopeptidase [28]): negative | β-alanine aminopeptidase activity, result (β-alanine aminopeptidase [29]): negative | β-alanine aminopeptidase activity, result (β-alanine aminopeptidase [30]): negative | β-alanine aminopeptidase activity, result (β-alanine aminopeptidase [31]): negative | β-alanine aminopeptidase activity, result (β-alanine aminopeptidase [32]): negative | β-alanine aminopeptidase activity, result (β-alanine aminopeptidase [33]): negative | β-alanine aminopeptidase activity, result (β-alanine aminopeptidase [34]): positive | β-alanine aminopeptidase activity, result (β-alanine aminopeptidase [35]): positive | β-alanine aminopeptidase activity, result (β-alanine aminopeptidase [36]): positive
